Measured values as given in ChEMBL document CHEMBL1240349, “Influence of tigecycline on expression of virulence factors in biofilm-associated cells of methicillin-resistant Staphylococcus aureus” (2010).

Assays:
Type in all cases: functional
[1] = system: Staphylococcus aureus; test: Decrease in capD gene expression in biofilm-associated cells of epidemic methicillin-resistant Staphylococcus aureus isolate 16 at 4 times MIC incubated for 1 hr by whole genome microarray relative to untreated control
[2] = system: Staphylococcus aureus; test: Increase in rho gene expression in biofilm-associated cells of epidemic methicillin-resistant Staphylococcus aureus isolate 16 at 4 times MIC incubated for 1 hr by whole genome microarray relative to untreated control
[3] = system: Staphylococcus aureus; test: Increase in infB gene expression in biofilm-associated cells of epidemic methicillin-resistant Staphylococcus aureus isolate 16 at 4 times MIC incubated for 1 hr by whole genome microarray relative to untreated control
[4] = system: Staphylococcus aureus; test: Increase in infA gene expression in biofilm-associated cells of epidemic methicillin-resistant Staphylococcus aureus isolate 16 at 4 times MIC incubated for 1 hr by whole genome microarray relative to untreated control
[5] = system: Staphylococcus aureus; test: Increase in tuf gene expression in biofilm-associated cells of epidemic methicillin-resistant Staphylococcus aureus isolate 16 at 4 times MIC incubated for 1 hr by whole genome microarray relative to untreated control
[6] = system: Staphylococcus aureus; test: Increase in rplD gene expression in biofilm-associated cells of epidemic methicillin-resistant Staphylococcus aureus isolate 16 at 4 times MIC incubated for 1 hr by whole genome microarray relative to untreated control
[7] = system: Staphylococcus aureus; test: Increase in rplB gene expression in biofilm-associated cells of epidemic methicillin-resistant Staphylococcus aureus isolate 16 at 4 times MIC incubated for 1 hr by whole genome microarray relative to untreated control
[8] = system: Staphylococcus aureus; test: Increase in rplN gene expression in biofilm-associated cells of epidemic methicillin-resistant Staphylococcus aureus isolate 16 at 4 times MIC incubated for 1 hr by whole genome microarray relative to untreated control
[9] = system: Staphylococcus aureus; test: Increase in rpsH gene expression in biofilm-associated cells of epidemic methicillin-resistant Staphylococcus aureus isolate 16 at 4 times MIC incubated for 1 hr by whole genome microarray relative to untreated control
[10] = system: Staphylococcus aureus; test: Decrease in capG gene expression in biofilm-associated cells of epidemic methicillin-resistant Staphylococcus aureus isolate 16 at 4 times MIC incubated for 1 hr by RT-PCR relative to untreated control
[11] = system: Staphylococcus aureus; test: Decrease in icaC gene expression in biofilm-associated cells of epidemic methicillin-resistant Staphylococcus aureus isolate 16 at 4 times MIC incubated for 1 hr by RT-PCR relative to untreated control
[12] = system: Staphylococcus aureus; test: Increase in clfB gene expression in biofilm-associated cells of epidemic methicillin-resistant Staphylococcus aureus isolate 16 at 4 times MIC incubated for 1 hr by RT-PCR relative to untreated control
[13] = system: Staphylococcus aureus; test: Increase in ssaA gene expression in biofilm-associated cells of epidemic methicillin-resistant Staphylococcus aureus isolate 16 at 4 times MIC incubated for 1 hr by RT-PCR relative to untreated control
[14] = system: Staphylococcus aureus; test: Increase in isaA gene expression in biofilm-associated cells of epidemic methicillin-resistant Staphylococcus aureus isolate 16 at 4 times MIC incubated for 1 hr by RT-PCR relative to untreated control
[15] = system: Staphylococcus aureus; test: Increase in mnhG gene expression in biofilm-associated cells of epidemic methicillin-resistant Staphylococcus aureus isolate 16 at 4 times MIC incubated for 1 hr by RT-PCR relative to untreated control
[16] = system: Staphylococcus aureus; test: Decrease in capC expression in biofilm-associated cells of epidemic methicillin-resistant Staphylococcus aureus isolate 16-1 at 4 times MIC incubated for 1 hr by RT-PCR relative to untreated control
[17] = system: Staphylococcus aureus; test: Increase in tcaR gene expression in biofilm-associated cells of epidemic methicillin-resistant Staphylococcus aureus isolate 16 at 4 times MIC incubated for 1 hr by whole genome microarray relative to untreated control
[18] = system: Staphylococcus aureus; test: Increase in gapR gene expression in biofilm-associated cells of epidemic methicillin-resistant Staphylococcus aureus isolate 16 at 4 times MIC incubated for 1 hr by whole genome microarray relative to untreated control
[19] = system: Staphylococcus aureus; test: Increase in saeR gene expression in biofilm-associated cells of epidemic methicillin-resistant Staphylococcus aureus isolate 16 at 4 times MIC incubated for 1 hr by whole genome microarray relative to untreated control
[20] = system: Staphylococcus aureus; test: Increase in dnaG gene expression in biofilm-associated cells of epidemic methicillin-resistant Staphylococcus aureus isolate 16 at 4 times MIC incubated for 1 hr by whole genome microarray relative to untreated control
[21] = system: Staphylococcus aureus; test: Increase in nusG gene expression in biofilm-associated cells of epidemic methicillin-resistant Staphylococcus aureus isolate 16 at 4 times MIC incubated for 1 hr by whole genome microarray relative to untreated control
[22] = system: Staphylococcus aureus; test: Increase in dltC gene expression in biofilm-associated cells of epidemic methicillin-resistant Staphylococcus aureus isolate 16 at 4 times MIC incubated for 1 hr by whole genome microarray relative to untreated control
[23] = system: Staphylococcus aureus; test: Increase in dltA gene expression in biofilm-associated cells of epidemic methicillin-resistant Staphylococcus aureus isolate 16 at 4 times MIC incubated for 1 hr by whole genome microarray relative to untreated control
[24] = system: Staphylococcus aureus; test: Increase in ssaA gene expression in biofilm-associated cells of epidemic methicillin-resistant Staphylococcus aureus isolate 16 at 4 times MIC incubated for 1 hr by whole genome microarray relative to untreated control
[25] = system: Staphylococcus aureus; test: Increase in cna gene expression in biofilm-associated cells of epidemic methicillin-resistant Staphylococcus aureus isolate 16 at 4 times MIC incubated for 1 hr by whole genome microarray relative to untreated control
[26] = system: Staphylococcus aureus; test: Decrease in sasF expression in biofilm-associated cells of epidemic methicillin-resistant Staphylococcus aureus isolate 16-1 at 4 times MIC incubated for 1 hr by RT-PCR relative to untreated control
[27] = system: Staphylococcus aureus; test: Decrease in tst expression in biofilm-associated cells of epidemic methicillin-resistant Staphylococcus aureus isolate 16-1 at 4 times MIC incubated for 1 hr by RT-PCR relative to untreated control
[28] = system: Staphylococcus aureus; test: Decrease in clfB expression in biofilm-associated cells of epidemic methicillin-resistant Staphylococcus aureus isolate 16-2 at 4 times MIC incubated for 1 hr by RT-PCR relative to untreated control
[29] = system: Staphylococcus aureus; test: Increase in icaC expression in biofilm-associated cells of epidemic methicillin-resistant Staphylococcus aureus isolate 16-2 at 4 times MIC incubated for 1 hr by RT-PCR relative to untreated control
[30] = system: Staphylococcus aureus; test: Increase in ssaA expression in biofilm-associated cells of epidemic methicillin-resistant Staphylococcus aureus isolate 16-2 at 4 times MIC incubated for 1 hr by RT-PCR relative to untreated control
[31] = system: Staphylococcus aureus; test: Decrease in tst expression in biofilm-associated cells of epidemic methicillin-resistant Staphylococcus aureus isolate 16-2 at 4 times MIC incubated for 1 hr by RT-PCR relative to untreated control
[32] = system: Staphylococcus aureus; test: Increase in cna expression in biofilm-associated cells of epidemic methicillin-resistant Staphylococcus aureus isolate 15 at 4 times MIC incubated for 1 hr by RT-PCR relative to untreated control
[33] = system: Staphylococcus aureus; test: Increase in fnbB expression in biofilm-associated cells of epidemic methicillin-resistant Staphylococcus aureus isolate 15 at 4 times MIC incubated for 1 hr by RT-PCR relative to untreated control
[34] = system: Staphylococcus aureus; test: Decrease in sasF expression in biofilm-associated cells of epidemic methicillin-resistant Staphylococcus aureus isolate 15 at 4 times MIC incubated for 1 hr by RT-PCR relative to untreated control

CN(C)c1cc(NC(=O)CNC(C)(C)C)c(O)c2c1C[C@H]1C[C@H]3[C@H](N(C)C)C(O)=C(C(N)=O)C(=O)[C@@]3(O)C(O)=C1C2=O [TIGECYCLINE]
fold change (FC) [1]: 2.19
fold change (FC) [2]: 2.15
fold change (FC) [3]: 2.35
fold change (FC) [4]: 4.77
fold change (FC) [5]: 7.41
fold change (FC) [6]: 13.06
fold change (FC) [7]: 13.38
fold change (FC) [8]: 13.76
fold change (FC) [9]: 14.86
fold change (FC) [10]: 1.01
fold change (FC) [11]: 2.23
fold change (FC) [12]: 7.5
fold change (FC) [13]: 2.04
fold change (FC) [14]: 7.68
fold change (FC) [15]: 5.16
fold change (FC) [16]: 1.75
fold change (FC) [17]: 2.79
fold change (FC) [18]: 9.12
fold change (FC) [19]: 2.02
fold change (FC) [20]: 2.19
fold change (FC) [21]: 4.34
fold change (FC) [22]: 2.29
fold change (FC) [23]: 2.63
fold change (FC) [24]: 2.84
fold change (FC) [25]: 2.1
fold change (FC) [26]: 1.32
fold change (FC) [27]: 1.51
fold change (FC) [28]: 1.18
fold change (FC) [29]: 1.6
fold change (FC) [30]: 1.72
fold change (FC) [31]: 5.52
fold change (FC) [32]: 1.55
fold change (FC) [33]: 1.22
fold change (FC) [34]: 1.86
